Results as given in ChEMBL document CHEMBL5380853, “Lead Optimization of Androgen Receptor-HSP27 Disrupting Agents in Glioblastoma” (J Med Chem, 2023).
Active and inactive are the calls of the source. No cut-off for these calls is given here.

Assays:
[1] = Toxicity in C57BL/6 mouse assessed as kidney histology by measuring necrosis/glomerular atrophy at 100 mg/kg, ip treated for 10 days by hematoxylin and eosin staining based assay; type: organism-based; conditions: in vivo, 240 h, time 10 day
T98G [2] = assay: Down regulation of androgen receptor activity in AR-overexpressing human T98G cells at 100 nM measured after 12 hrs by Western blotting analysis; type: functional, cell-based
[3] = Toxicity in C57BL/6 mouse assessed as heart histology by measuring infarcts/inflammatory cell infiltration at 100 mg/kg, ip treated for 10 days by hematoxylin and eosin staining based assay; type: organism-based; conditions: in vivo, 240 h, time 10 day
T98G [4] = assay: Down regulation of androgen receptor activity in AR-overexpressing human T98G cells at 50 nM measured after 12 hrs by Western blotting analysis; type: functional, cell-based
[5] = target: Heat shock protein beta-1 (Homo sapiens) (UniProt P04792); assay: Inhibition of HSP27 chaperone activity in AR-overexpressing human U87 cells assessed as down regulation of androgen receptor level at 25 to 100 nM by Western blotting analysis; type: cell-based; conditions: dose lower […], dose upper 100.0 nM
Sequence of Heat shock protein beta-1 (Homo sapiens) (P04792 whole entry): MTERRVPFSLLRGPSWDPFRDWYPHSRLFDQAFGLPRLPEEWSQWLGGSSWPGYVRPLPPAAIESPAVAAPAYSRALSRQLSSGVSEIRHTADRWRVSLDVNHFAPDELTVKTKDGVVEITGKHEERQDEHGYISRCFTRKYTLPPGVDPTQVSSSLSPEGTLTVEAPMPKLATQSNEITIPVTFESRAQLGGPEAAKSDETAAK

[6] = AUC (0 to infinity) in mouse brain at 20 mg/kg, ip measured for 24 hrs by LC-MS/MS analysis; type: ADME, organism-based; parameters: time 24 hrs, dose 20 mg/kg, route ip; conditions: in vivo
[7] = Toxicity in C57BL/6 mouse assessed as liver histology at 100 mg/kg, ip treated for 10 days by hematoxylin and eosin staining based assay; type: organism-based; conditions: in vivo, 240 h, time 10 day
[8] = AUC (0 to infinity) in mouse plasma at 20 mg/kg, ip measured for 24 hrs by LC-MS/MS analysis; type: ADME, organism-based; parameters: time 24 hrs, dose 20 mg/kg, route ip; conditions: in vivo
[9] = target: Heat shock protein beta-1 (Homo sapiens) (UniProt P04792); assay: Inhibition of HSP27 chaperone activity in human T98G cells expressing AR-V7 mutant assessed as down regulation of androgen receptor level at 25 to 100 nM by Western blotting analysis; type: cell-based; conditions: dose lower […], dose upper 100.0 nM
U-87 MG [10] = assay: In vivo antitumor activity against human U87 cells xenografted in mouse assessed as decrease in AR protein level in tumor at 20 mg/kg, ip administered weekly 3 times for 14 days relative to control; type: functional, organism-based; conditions: U-87MG ATCC, time 14.0 day
[11] = target: Heat shock protein beta-1 (Homo sapiens) (UniProt P04792); assay: Inhibition of HSP27 alpha-crystallin (unknown origin) activity assessed as DTT-induced insulin B chain aggregation at 10 uM measured upto 2 hrs by microplate reader-based HSP27 chaperone activity assay
[12] = Cmax in mouse plasma at 20 mg/kg, ip measured for 24 hrs by LC-MS/MS analysis; type: ADME, organism-based; parameters: time 24 hrs, dose 20 mg/kg, route ip; conditions: in vivo
[13] = AUC (0 to 24 hrs) in mouse plasma at 20 mg/kg, ip measured for 24 hrs by LC-MS/MS analysis; type: ADME, organism-based; parameters: dose 20 mg/kg, time 24 hrs, route ip; conditions: in vivo
[14] = Apparent Half life in mouse brain at 20 mg/kg, ip measured for 24 hrs by LC-MS/MS analysis; type: ADME, organism-based; conditions: in vivo
[15] = Toxicity in C57BL/6 mouse assessed as physical condition at 100 mg/kg, ip treated for 10 days; type: organism-based; conditions: in vivo, 240 h, time 10 day
U-87 MG [16] = assay: Antitumor activity against human U87 cells xenografted in mouse assessed as decrease in tumor size at 20 mg/kg, ip administered weekly 3 times for 14 days; type: functional, organism-based; conditions: U-87MG ATCC, time 14.0 day
U-87 MG [17] = assay: In vivo antitumor activity against human U87 cells xenografted in mouse assessed as decrease in tumor weight at 20 mg/kg, ip administered weekly 3 times for 14 days relative to control; type: functional, organism-based; conditions: U-87MG ATCC, time 14.0 day
[18] = Cmax in mouse brain at 20 mg/kg, ip measured for 24 hrs by LC-MS/MS analysis; type: ADME, organism-based; parameters: dose 20 mg/kg, time 24 hrs, route ip
[19] = target: Heat shock protein beta-1 (Homo sapiens) (UniProt P04792); assay: Inhibition of HSP27 in AR-overexpressing human U87 cells assessed as androgen receptor degradation by measuring decrease in free cytoplasmic AR level at 50 nM measured after 12 hrs by immunofluorescence assay; type: cell-based
[20] = Apparent half life in mouse plasma at 20 mg/kg, ip measured for 24 hrs by LC-MS/MS analysis; type: ADME, organism-based; conditions: in vivo, ip, 20 mg/kg, 24 h
T98G [21] = assay: Effect on nucleus AR level in AR-overexpressing human T98G cells at 50 nM measured after 12 hrs by immunofluorescence assay; type: functional, cell-based
[22] = Toxicity in C57BL/6 mouse assessed as spleen histology by measuring intact/distinct spleen-follical at 100 mg/kg, ip treated for 10 days by hematoxylin and eosin staining based assay; type: organism-based; conditions: in vivo, 240 h, time 10 day
[23] = Toxicity in mouse xenografted with human U87 cells assessed as body weight at 20 mg/kg, ip administered weekly 3 times for 14 days; type: organism-based, U-87MG ATCC; conditions: in vivo, 336 h, time 14 day
U-87MG ATCC = assay: Effect on nucleus AR level in AR-overexpressing human U87 cells at 50 nM measured after 12 hrs by immunofluorescence assay; type: functional, cell-based
[24] = Toxicity in C57BL/6 mouse assessed as lung histology by measuring injury/fibrosis at 100 mg/kg, ip treated for 10 days by hematoxylin and eosin staining based assay; type: organism-based; conditions: in vivo, 240 h, time 10 day
[25] = target: Heat shock protein beta-1 (Homo sapiens) (UniProt P04792); assay: Inhibition of HSP27 chaperone activity in AR-overexpressing human T98G cells assessed as down regulation of androgen receptor level at 25 to 100 nM by Western blotting analysis; type: cell-based; conditions: dose lower […], dose upper 100.0 nM
[26] = target: Heat shock protein beta-1 (Homo sapiens) (UniProt P04792); assay: Inhibition of HSP27 in AR-overexpressing human T98G cells assessed as androgen receptor degradation by measuring decrease in free cytoplasmic AR level at 50 nM measured after 12 hrs by immunofluorescence assay; type: cell-based
[27] = Toxicity in C57BL/6 mouse assessed as body weight change at 100 mg/kg, ip treated for 10 days; type: organism-based; conditions: in vivo, 240 h, time 10 day
[28] = AUC (0 to 24 hrs) in mouse brain at 20 mg/kg, ip measured for 24 hrs by LC-MS/MS analysis; type: ADME, organism-based; parameters: dose 20 mg/kg, time 24 hrs, route ip; conditions: in vivo

Row | inhibition [5] | AUC [6] [µg·h/g] | AUC [8] [ng·h/mL] | inhibition [9] | inhibition [11] | Cmax [12] [ng/mL] | AUC [13] [ng·h/mL] | t1/2 [14] [h] | inhibition [19] | t1/2 [20] [h] | Compound | Activity [1] | Activity (T98G [2]) | Activity [3] | Activity (T98G [4]) | Activity [7] | Activity (U-87 MG [10]) | Activity [15] | Activity (U-87 MG [16]) | Activity (U-87 MG [17]) | Activity (T98G [21]) | also measured
1 | Active | 2.44 | 80840 | Active | Active | 30620 | 61920 | 8.66 | Active | 6.28 | COc1ccc(OC)c(COc2cc(NC(=O)c3ccc4ccccc4c3)ccc2NS(C)(=O)=O)c1 | Non-Toxic | Active | Non-Toxic | Active | Non-Toxic | Active | Non-Toxic | Active | Active | inactive | Cmax ([18]; in vivo, 24 h): 0.76 µg/g; Activity [22]: Non-Toxic; Activity [23]: Non-Toxic; Activity (U-87MG ATCC): inactive; Activity [24]: Non-Toxic; inhibition [25]: Active; inhibition [26]: Active; Activity [27]: Non-Toxic; AUC [28]: 1.34 µg·h/g
2 | Active | 0.62 | 32130 | Active | Active | 20200 | 20020 | 0.57 | Active | 1.49 | COc1ccc(OC)c(COc2cc(NC(=O)c3ccc4c(c3)OCO4)ccc2NS(C)(=O)=O)c1 | Non-Toxic | Active | Non-Toxic | Active | Non-Toxic | Active | Non-Toxic | Active | Active | inactive | Cmax ([18]; brain, read-out: Cmax): 0.68 µg/g; Activity [22]: Non-Toxic; Activity [23]: Non-Toxic; Activity (U-87MG ATCC): inactive; Activity [24]: Non-Toxic; inhibition [25]: Active; inhibition [26]: Active; Activity [27]: Non-Toxic; AUC [28]: 0.31 µg·h/g
